From patent US20030229067A1, “Pyrrolopyrimidine A2b selective antagonist compounds, their synthesis and use” (priority 2001, published 2003)

How the values were obtained:
human A2B receptor = target: T1, human A2B receptor (Homo sapiens, UniProt P29275); test: Radioligand binding assay ([3H]-DPCPX competition), membranes of HEK293 stably expressing human A2B receptor; conditions: for selectivity for the A2B receptor relative to the A1, A2A, and A3 receptor: fold selectivity A2B over A1, A2A and A3 receptors
T1 construct: expressed in transfected cells; membranes prepared from the cells
T1 sequence (P29275 1-332): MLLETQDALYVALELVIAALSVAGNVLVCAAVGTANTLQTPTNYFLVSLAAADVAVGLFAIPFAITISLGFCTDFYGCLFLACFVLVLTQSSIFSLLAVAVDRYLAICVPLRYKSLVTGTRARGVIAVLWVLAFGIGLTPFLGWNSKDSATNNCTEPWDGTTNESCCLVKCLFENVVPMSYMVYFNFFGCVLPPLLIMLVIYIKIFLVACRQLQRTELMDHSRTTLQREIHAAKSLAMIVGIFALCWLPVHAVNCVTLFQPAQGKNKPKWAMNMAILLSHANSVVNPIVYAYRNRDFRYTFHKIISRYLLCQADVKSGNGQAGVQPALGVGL
Excerpt: Materials. [^3H]—DPCPX [cyclopentyl-1,3-dipropylxanthine] (120 Ci/mmol) was purchased from New England Nuclear (Boston, Mass.). The adenosine deaminase and complete protease inhibitor cocktail tablets were purchased from Boehringer Mannheim Corp. (Indianapolis, Ind.). Cell culture reagents were from Life Technologies (Grass Island, N.Y.) except for serum that was from Hyclone (Logan, Utah).
Cell line. HEK293 stably expressing the human A2B receptor were used for radioligand binding assays. Cells were grown in DMEM Glutamax containing 10% FBS, 0.2 mg/ml G418 at 37° C. in 5% CO2/95% atmosphere.
Membrane Preparation. Cells were washed with cold PBS buffer twice, scraped off the plates, and centrifuged at 1000×g for 5 minutes. Cells were homogenized with ice-cold buffer of 5 mM Tris, pH 7.4, 5 mM EDTA, 5 mM EGTA, protease inhibitor cocktail tablets and incubated for 10 min on ice. The homogenate was centrifuged at 32,000×g for 30 min. The membranes were resuspended in buffer of 50 mM Tris, pH 7.4, 0.6 mM EDTA, 5 mM MgCl2, stored at −80° C. until use. Protein concentration was determined by the methods of Bradford.
Radioligand binding assay. Membranes were homogenized in buffer containing 10 mM HEPES-KOH, pH 7.4 containing 1.0 mM EDTA; 2 U/ml adenosine deaminase; and 0.1 mM Benzamidine and incubated for 30 min at room temperature. Dissociation constants of radioligand (Kd values) and maximum binding sites (Bmax) were determined in saturation binding experiments. Saturation binding assays were carried out in a reaction mixture containing 50 μl of membrane suspension, 25 μl of 4% DMSO, 25 μl of increasing amounts of radioligand, [^3H]—DPCPX (final concentration 1-200 nM). […] Nonspecific binding was measured in the presence of […] NECA. Compounds were dissolved in
DMSO and then diluted with 4% DMSO; the final maximum DMSO concentrations were 1%. […] Reactions were terminated by rapid filtration over GF/C filters using a cell harvester. The filters were washed ten times with 0.4 ml of ice-cold buffer containing 10 mM HEPES-KOH, pH 7.4. The filters were dried, covered with scintillation fluid and counted with a TopCount.

SMILES	selectivity for the A2B receptor relative to the A1, A2A, and A3 receptor (human A2B receptor; binding assays) [×]	melting point	further results
CC(=O)NCCNc1nc(-c2ccccc2)nc2[nH]c(COC3CCN(CCc4ccccc4Cl)CC3)cc12 [17.7, N-[2-(6-{1-[2-(2-Chlorophenyl)ethyl]piperidin-4-yloxymethyl}-2-phenyl-7H-pyrrolo[2,3-d]pyrimidin-4-ylamino)ethyl]acetamide]	26		Ki (human A2B receptor; [3H]-DPCPX competition binding): 5 nM
CC(=O)NCCNc1nc(-c2ccccc2)nc2[nH]c(COC3CCN(CCc4ccccc4Cl)CC3)cc12.CS(=O)(=O)O [17.7.MsOH, N-[2-(-6-{1-[2-(2-Chlorophenyl)ethyl]piperidine-4-yloxymethyl}-2-phenyl-7H-pyrrolo[2,3-d]pyrimidin-4-ylamino)ethyl]acetamide methanesulfonic acid salt]	24		
CC(=O)NCCNc1nc(-c2ccccc2)nc2[nH]c(C(=O)N3CCN(c4ccc(F)cc4)CC3)cc12 [26.38, N-(2-{6-[4-(4-Fluorophenyl)-piperazine-1-carbonyl]-2-phenyl-7H-pyrrolo[2,3-d]pyrimidin-4-ylamino}-ethyl)-acetamide]		234 °C	
CC(=O)NCCNc1nc(-c2ccccc2)nc2[nH]c(C(=O)N3CCN(c4ccc(C(F)(F)F)cn4)CC3)cc12 [26.39, N-(2-{2-Phenyl-6-[4-(5-trifluoromethylpyridin-2-yl)-piperazine-1-carbonyl]-7H-pyrrolo[2,3-d]pyrimidin-4-ylamino}-ethyl)-acetamide]		270 to 273 °C	
COC1(c2ccccc2Cl)CCN(C(=O)c2cc3c(NCCNC(C)=O)nc(-c4ccccc4)nc3[nH]2)CC1 [26.42, N-(2-{6-[4-(2-Chlorophenyl)-4-methoxypiperidine-1-carbonyl]-2-phenyl-7H-pyrrolo[2,3-d]pyrimidin-4-ylamino}-ethyl)-acetamide]	57	201 to 202 °C	
COC1(c2ccc(F)cc2)CCN(C(=O)c2cc3c(NCCNC(C)=O)nc(-c4ccccc4)nc3[nH]2)CC1 [26.48, N-(2-{6-[4-(4-Fluorophenyl)4-methoxypiperidine-1-carbonyl]-2-phenyl-7H-pyrrolo[2,3-d]pyrimidin-4-ylamino}-ethyl)-acetamide]		134 to 137 °C	
CC(=O)NCCNc1nc(-c2ccccc2)nc2[nH]c(C(=O)N3CCC4(CC3)CCN(Cc3ccccc3)C4=O)cc12 [26.49, N-{2-[6-(2-Benzyl-1-oxo-2,8-diazaspiro[4.5]decane-8-carbonyl)-2-pheny1-7H-pyrrolo[2,3-d]pyrimidin-4-ylamino]-ethyl}-acetamide]		140 °C (dec.)	
COC1(c2ccccc2Cl)CCN(C(=O)c2cc3c(NCCNC(=O)c4cc5c(NCCNC(C)=O)nc(-c6ccccc6)nc5[nH]4)nc(-c4ccccc4)nc3[nH]2)CC1 [26.51, 4-(2-Acetylaminoethylamino)-2-phenyl-7H-pyrrolo[2,3-d]pyrimidine-6-carboxylic acid (2-{6-[4-(2-chlorophenyl)-4-methoxypiperidine-1-carbonyl]-2-phenyl-7H-pyrrolo[2,3-d]pyrimidin-4-ylamino}-ethyl)-amide]		180 to 185 °C (dec.)	

The next lines start with results.

selectivity for the A2B receptor relative to the A1, A2A, and A3 receptor (human A2B receptor; binding assays) [×]	melting point	SMILES	further results
	260 to 261 °C	CC(=O)NCCNc1nc(-c2ccccc2)nc2[nH]c(C(=O)N3CCC(Cc4ccccc4)CC3)cc12 [26.54, N-{2-[6-(4-Benzylpiperidine-1-carbonyl)-2-phenyl-7H-pyrrolo[2,3-d]pyrimidin-4-ylamino]-ethyl}-acetamide]	
82		CC(=O)NCCNc1nc(-c2ccccc2)nc2[nH]c(C(=O)N3CCN(c4ccc(Cl)cc4)CC3)cc12 [26.71, N-(2-{6-[4-(4-Chlorophenyl)-piperazine-1-carbonyl]-2-phenyl-7H-pyrrolo[2,3-d]pyrimidin-4-ylamino}-ethyl)-acetamide]	receptor profile in words (selectivity listing) (human A2B receptor; binding assays, A2B vs A1, A2A, A3): A1/A2B dual antagonist
19		CC(=O)NCCNc1nc(-c2ccccc2)nc2[nH]c(C(=O)N3CCN(CCCc4ccc(Cl)cc4)CC3)cc12 [26.135, N-[2-(6-{4-[3-(4-Chlorophenyl)-propyl]-piperazine-1-carbonyl}-2-phenyl-7H-pyrrolo[2,3-d]pyrimidin-4-ylamino)-ethyl]-acetamide]	
17		CC(=O)NCCNc1nc(-c2ccccc2)nc2[nH]c(C(=O)N3CCN(CCCc4ccc(Cl)cc4)CC3)cc12.CS(=O)(=O)O [26.135.MsOH, N-[2-(6-{4-[3-(4-Chlorophenyl)-propyl]-piperazine-1-carbonyl}-2-phenyl-7H-pyrrolo[2,3-d]pyrimidin-4-ylamino)-ethyl]-acetamide methanesulfonate salt]	
57		CC(=O)NCCNc1nc(-c2ccccc2)nc2[nH]c(C(=O)N3CCC(C#N)(c4ccccc4Cl)CC3)cc12 [26.237, N-(2-{6-[4-(2-Chlorophenyl)-4-cyanopiperidine-1-carbonyl]-2-phenyl-7H-pyrrolo[2,3-d]pyrimidin-4-ylamino}-ethyl)-acetamide]	
33		CC(=O)NCCNc1nc(-c2ccccc2)nc2[nH]c(C(=O)N3CCC(C#N)(c4ccccc4Cl)CC3)cc12.CS(=O)(=O)O [26.237.MsOH, N-(2-{6-[4-(2-Chlorophenyl)4-cyanopiperidine-1-carbonyl]-2-phenyl-7H-pyrrolo[2,3-d]pyrimidin-4-ylamino}-ethyl)-acetamide methanesulfonic acid salt]	
